Measured values taken from publication PMC11887843 (Science Advances, 2024).
Like-named read-outs stand apart in the source and are kept apart here.

Tests used:
caspase-11 [1] = target: T1, caspase-11 (Mus musculus, UniProt P70343); assay: microscale thermophoresis; type: binding
T1 sequence (P70343 1-80 limits assumed): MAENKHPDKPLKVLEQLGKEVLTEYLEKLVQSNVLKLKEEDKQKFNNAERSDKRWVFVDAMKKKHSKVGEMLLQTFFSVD

[2] = target: T2, AcCARD (uncharacterized CARD-containing protein) (Amphilophus citrinellus, UniProt A0A3Q0SFM2); assay: limited trypsin digestion and blue native PAGE in […] lysates; type: cell-based
T2 sequence (A0A3Q0SFM2 1-92): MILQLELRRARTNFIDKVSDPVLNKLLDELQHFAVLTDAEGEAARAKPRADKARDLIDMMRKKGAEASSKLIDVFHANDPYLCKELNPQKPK

caspase-11 [3] = target: T1, caspase-11; assay: microscale thermophoresis; type: binding; remark: listed apart in the source

Row | Structure (SMILES) | Kd (caspase-11 [1]) [µM] | limited trypsin digestion and blue native PAGE in 293T lysates [2] | Kd (caspase-11 [3]) [µM]
1 | CCCCCCCCCCCCCCCC(=O)OC[C@@H](O)COP(=O)([O-])OCC[N+](C)(C)C [16:0 LysoPC, 1-palmitoyl-2-hydroxy-sn-glycero-3-phosphocholine] | ~10 |  | 
2 | CCCCCCCCCCCCCCCC(=O)OC[C@H](COP(=O)([O-])OCC[N+](C)(C)C)OC(=O)CCCC(=O)O [PGPC] |  | we found that AcCARD binds PGPC in both native PAGE and limited trypsin digestion assays | ~15
